Data set [1] can be described thus: Inhibition of Dengue virus NS5-methyltransferase using GpppAC4 and [3H]AdoMet as substrate incubated for 30 mins by liquid scintillation counter analysis.
Data set [2] deals with Zika virus. Briefly: Inhibition of Zika virus NS5-methyltransferase at 50 uM using GpppAC4 and [3H]AdoMet as substrate incubated for 30 mins by liquid scintillation counter analysis relative to control.
Data set [3] relates to Zika virus. Kind of data set: Antiviral activity against Zika virus. In kind it is functional, organism-based.
The nature of data set [4]: Inhibition of Zika virus NS5-methyltransferase using GpppAC4 and [3H]AdoMet as substrate incubated for 30 mins by liquid scintillation counter analysis.
A short description of data set [5]: Inhibition of Dengue virus 3 nucleoside-2'O-methyltransferase assessed as inhibition constant. Further details: species or system dengue virus type 3.
Data set [6] has as its target T1, mRNA cap guanine-N(7) methyltransferase (Homo sapiens, UniProt O43148). Briefly: Inhibition of human RNMT assessed as inhibition constant.
A short description of data set [7]: Inhibition of Dengue virus 3 guanine-N7 methyltransferase assessed as inhibition constant. Further details: species or system dengue virus type 3.
Data set [8] has as its system Zika virus. Briefly: Antiviral activity against Zika virus infected in African green monkey Vero cells assessed as reduction in viral plaques by plaque reduction assay. It counts as functional, organism-based. Background: In a plaque reduction assay, fewer plaques than in the control indicate reduced infectivity or spread.
For data set [9], the system named is dengue virus type 2. Kind of data set: Inhibition of Dengue virus 2 NS5-methyltransferase at 50 uM by HTRF assay relative to control. (In general: TR-FRET usually uses a lanthanide donor and a delayed reading to cut background.)
The target of data set [10] is T1, mRNA cap guanine-N(7) methyltransferase. Briefly: Inhibition of human RNMT at 50 uM using polyU as substrate incubated for 10 mins in presence of [3H] ATP and ATP by liquid scintillation counter analysis relative to control.
Data set [11] has as its system dengue virus type 2. Briefly: Antiviral activity against Dengue virus 2 infected in asian tiger mosquito C6/36 cells assessed as reduction in virus replication by methyleneblue staining based analysis. In kind it is functional, organism-based.
The nature of data set [12]: Cytotoxicity against hamster BHK-21 cells assessed as reduction in cell growth measured after 24 hrs by MTT assay. In kind it is toxicity, cell-based, Mesocricetus auratus.
Data set [13] is described as follows: Cytotoxicity against HEK293T cells assessed as reduction in cell growth measured after 24 hrs by MTT assay. It counts as toxicity, cell-based, HEK-293T. The settings on record: human. Background: Tetrazolium dyes change colour on reduction, which living cells bring about.
The nature of data set [14]: Cytotoxicity against human A549 cells assessed as reduction in cell growth measured after 24 hrs by MTT assay. In kind it is toxicity, cell-based.
Data set [15] relates to dengue virus type 1. Briefly: Antiviral activity against Dengue virus 1 infected in asian tiger mosquito C6/36 cells assessed as reduction in virus replication by methyleneblue staining based analysis. In kind it is functional, organism-based.
For data set [16], the system named is dengue virus type 4. Briefly: Antiviral activity against Dengue virus 4 infected in asian tiger mosquito C6/36 cells assessed as reduction in virus replication by methyleneblue staining based analysis. In kind it is functional, organism-based.
The nature of data set [17]: Cytotoxicity against human Huh-7 cells assessed as reduction in cell growth measured after 24 hrs by MTT assay. It counts as toxicity, cell-based.
A short description of data set [18]: Binding affinity to Zika virus NS5-methyltransferase assessed as dissociation constant by isothermal titration microcalorimetry method.
Data set [19] has as its target T1, mRNA cap guanine-N(7) methyltransferase. Kind of data set: Inhibition of human RNMT using GpppAC4 and [3H]AdoMet as substrate incubated for 30 mins by liquid scintillation counter analysis.

T1 sequence (O43148 whole entry): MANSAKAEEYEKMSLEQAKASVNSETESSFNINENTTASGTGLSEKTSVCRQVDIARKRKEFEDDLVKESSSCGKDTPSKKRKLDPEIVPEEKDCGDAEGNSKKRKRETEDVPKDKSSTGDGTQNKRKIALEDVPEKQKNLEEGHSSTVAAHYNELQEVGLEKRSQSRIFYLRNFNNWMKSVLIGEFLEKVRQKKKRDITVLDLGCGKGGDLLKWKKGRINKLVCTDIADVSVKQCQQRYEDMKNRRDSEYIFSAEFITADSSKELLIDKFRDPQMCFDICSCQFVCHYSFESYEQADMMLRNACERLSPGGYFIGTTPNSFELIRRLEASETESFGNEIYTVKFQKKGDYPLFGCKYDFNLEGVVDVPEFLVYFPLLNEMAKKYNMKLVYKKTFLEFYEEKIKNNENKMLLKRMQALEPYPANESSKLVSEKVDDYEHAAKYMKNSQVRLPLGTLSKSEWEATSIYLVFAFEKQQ

With `CCn1c2ccccc2c2cc(NC(=O)Nc3ccc([N+](=O)[O-])cc3C)ccc21`, the IC50 (usually the concentration at which inhibition is half-maximal) was 38 µM in [1] and 35 µM in data set [4]. The inhibition – broadly, the drop in the measured response relative to a control, in per cent – in data set [2] is 30%. The EC50 (in general, the concentration at which the effect is half-maximal) in [3] was > 3.99 µM.
Consider `Nc1ncnc2c1ncn2[C@@H]1O[C@H](CSCC[C@H](N)C(=O)O)[C@@H](O)[C@H]1O` [S-ADENOSYLHOMOCYSTEINE], for which the Ki – broadly, the dissociation constant of the complex between target and ligand, obtained from inhibition or displacement – in [5] was 0.57 µM; in [6], > 50 µM; in data set [7] it was 3.19 µM.
Take `O=C(Nc1ccc(I)cc1)Nc1ccc2c(c1)c1ccccc1n2Cc1ccccc1`: the inhibition in data set [2] came out at 30%. This compound yielded an IC50 in [4] of 23 µM.
Consider `Cc1ccc2c(c1)c(=O)c(C(=O)c1ccccc1)cn2CC(=O)Nc1ccccc1C`, for which the EC50 in data set [8] was determined as 17.5 µM.
As to `CCCCCCCCCCCCCCCC[N+](C)(C)CCN(Cc1ccc(OC)cc1)c1ncccn1`, the values for the inhibition in data set [9] and in [10] were 98.6% and 96%, respectively.
As to `CNc1ncnc2c1ncn2[C@@H]1O[C@H](CSCC[C@@H](N)C(=O)O)[C@@H](O)[C@H]1O`, the values for the Ki in data set [5] and in [7] were 0.15 µM and 0.77 µM, respectively.
Taken in the same sequence, the figures for `N[C@H](CCSC[C@H]1O[C@@H](n2cnc3c(NC4CC4)ncnc32)[C@H](O)[C@@H]1O)C(=O)O` were 0.15 µM and 0.77 µM.
The matching figures for `N[C@H](CCSC[C@H]1O[C@@H](n2cnc3c(NCCc4ccccc4)ncnc32)[C@H](O)[C@@H]1O)C(=O)O`: 0.15 µM and 0.77 µM.
Turning to `Cc1ccc(CNc2ncnc3c2ncn3[C@@H]2O[C@H](CSCC[C@@H](N)C(=O)O)[C@@H](O)[C@H]2O)cc1`, the Ki turned out to be 0.15 µM in [5] and 0.77 µM in data set [7].
For the compound `O=C1c2cccc3cccc(c23)C(=O)N1CCc1ccc(S(=O)(=O)N2CCN(c3ccccc3)CC2)cc1`, the EC50 in data set [8] is 4.8 µM.
Take `N[C@H](CCSC[C@H]1O[C@@H](n2cnc3c(NCc4ccccc4)ncnc32)[C@H](O)[C@@H]1O)C(=O)O`: the results for the Ki in [5] and in data set [7] were 0.15 µM and 0.77 µM, respectively.
`Cc1cc(/C=C/c2ccc3cc(N(C)C)ccc3[n+]2C)c(C)n1-c1ccccc1`: the inhibition in [9] stood at 97.8%; in [10], 98.6%.
On to `CCC(/C(C)=C/c1cc(OC)c(OC)cc1OC)c1cc(OC)c(OC)cc1OC` (stereo unspecified), for which the figures for the EC50 in [11], in data set [15] and in data set [16] were 4.5 µM, 4.27 µM and 4.54 µM, respectively. Further, the CC50 at 24 h in [12], in data set [13], in data set [14] and in data set [17] was > 80 µM each time.
Take `N[C@H](CCSC[C@H]1O[C@@H](n2cnc3c(NCc4cccc(F)c4)ncnc32)[C@H](O)[C@@H]1O)C(=O)O`: the Ki is 0.15 µM in data set [5] and 0.77 µM in data set [7].
The matching figures for `N[C@H](CCSC[C@H]1O[C@@H](n2cnc3c(Nc4ccccc4)ncnc32)[C@H](O)[C@@H]1O)C(=O)O`: 0.15 µM and 0.77 µM.
On to `COCCCNC(=O)c1ccc(Cn2c(=O)c3ccccc3n(CC(=O)NCCc3ccc(OC)c(OC)c3)c2=O)cc1`, for which, in data set [8], the EC50 stood at 12.5 µM.
As for `C[S+](CC[C@H](N)C(=O)[O-])C[C@H]1O[C@@H](n2cnc3c(N)ncnc32)[C@H](O)[C@@H]1O` (stereo partly specified) [ADEMETIONINE], in [18], the Kd (as a rule, the equilibrium constant for the complex coming apart) is 2.58 µM.
As to `Nc1ncnc2c1ncn2[C@@H]1O[C@H](C[C@@H](N)CC[C@H](N)C(=O)O)[C@@H](O)[C@H]1O` [SINEFUNGIN], the IC50 amounted to 1.18 µM in [1] and 5.3 µM in [19].
For the compound `N[C@H](CCSC[C@H]1O[C@@H](n2cnc3c(NCc4cccc(Cl)c4)ncnc32)[C@H](O)[C@@H]1O)C(=O)O`, the figures for the Ki in data set [5] and in data set [7] were 0.17 µM and 0.82 µM, respectively.
For the compound `Cc1ccccc1CNc1ncnc2c1ncn2[C@@H]1O[C@H](CSCC[C@@H](N)C(=O)O)[C@@H](O)[C@H]1O`, the values for the Ki in data set [5] and in data set [7] were 0.15 µM and 0.77 µM, respectively.
Taken in the same sequence, the figures for `N[C@H](CCSC[C@H]1O[C@@H](n2cnc3c(NCc4cccc(I)c4)ncnc32)[C@H](O)[C@@H]1O)C(=O)O` were 0.15 µM and 0.77 µM.
As for `N[C@H](CCSC[C@H]1O[C@@H](n2cnc3c(NCc4cccc(Br)c4)ncnc32)[C@H](O)[C@@H]1O)C(=O)O`, the Ki is 0.15 µM in [5] and 0.77 µM in data set [7].
Take `Cc1cccc(CNc2ncnc3c2ncn3[C@@H]2O[C@H](CSCC[C@@H](N)C(=O)O)[C@@H](O)[C@H]2O)c1`: the Ki in data set [5] amounted to 0.15 µM; in data set [7], 0.77 µM.
As to `Cc1ccnc(NS(=O)(=O)c2ccc(NC(=O)c3ccc(S(=O)(=O)N4CCc5ccccc5C4)cc3)cc2)n1`, the EC50 in data set [8] is 17.6 µM.
`COc1ccc(NC(=O)Nc2ccc3c(c2)c2ccccc2n3CCc2ccccc2)c(OC)c1` displayed an inhibition in [2] of 30%. The compound also returned an IC50 in data set [4] of 23 µM.
Regarding `Nc1ncnc2c1ncn2[C@@H]1O[C@H](CN(CCC(N)C(=O)O)Cc2ccc(F)cc2)[C@@H](O)[C@H]1O` (stereo partly specified), the Kd in [18] is 24.3 µM.
Compound `COc1ccc(NC(=O)Nc2ccc3c(c2)c2ccccc2n3Cc2ccccc2)c(OC)c1` yielded an inhibition in data set [2] of 30%. Besides, the IC50 in data set [4] came out at 23 µM.
